Experimental data published in PubChem BioAssay AID1645868 (Buhrlage Lab, Dana-Farber Cancer Institute and Novartis …, 2021).
Active and inactive are the calls of the source.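 How the source made its calls: active means maximal percent inhibition of the deubiquitinase OTUD3 of at least 30% across the tested doses; inactive means the rest.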

target: OTU domain-containing protein 3 (Homo sapiens) (UniProt Q5T2D3); assay: Validation of screening hits, potency titration, in vitro enzymatic, OTU domain-containing protein 3 DUB inhibitors (AID 1645868); details: purified OTUD3, ubiquitin-rhodamine cleavage fluorescence, 2 h
Sequence (Q5T2D3 whole entry, looked up, the tested form may be a part): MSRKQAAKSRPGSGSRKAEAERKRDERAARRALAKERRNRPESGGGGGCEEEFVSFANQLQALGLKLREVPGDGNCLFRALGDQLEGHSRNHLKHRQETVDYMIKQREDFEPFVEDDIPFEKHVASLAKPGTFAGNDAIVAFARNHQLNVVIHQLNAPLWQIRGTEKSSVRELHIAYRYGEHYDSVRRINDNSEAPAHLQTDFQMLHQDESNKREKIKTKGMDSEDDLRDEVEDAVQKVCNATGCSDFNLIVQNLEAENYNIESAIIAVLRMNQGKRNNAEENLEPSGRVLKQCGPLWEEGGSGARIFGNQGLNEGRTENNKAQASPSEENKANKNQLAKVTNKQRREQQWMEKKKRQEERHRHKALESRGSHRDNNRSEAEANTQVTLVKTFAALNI

| Compound | IC50 |
| --- | --- |
| O=C(Cc1ccccc1F)N1CCC2(CC1)CC1(CO2)Nc2ccccc2-n2cccc21 (configuration not stated) | > 50 µM (inactive) |
| CC(C)Cn1cc(OC(=O)c2ccc(F)cc2)c2c1nc(-c1ccc(F)cc1)n1c3ccccc3nc21 | > 50 µM (inactive) |
| O=[N+]([O-])c1cccc(CSc2nnc(/C=C/c3ccccc3)o2)c1 | > 50 µM (inactive) |
| Cc1cccc(NC(=O)Cn2c(N3CCOCC3)nc3cc(C)n(C)c3c2=O)c1 | 40.6 µM |
| Cc1ccc(Cn2nnc(C(=O)NCc3ccco3)c2-n2cccc2)cc1 | > 50 µM (inactive) |
| COc1ccc(OC)c(-c2c(C#N)c(C)nc3c2N2CCC3CC2)c1 | 25 µM |
| Cc1ccc(C(=O)Nc2ccc3nccnc3c2)cc1 | > 50 µM (inactive) |
| O=C(O)Cc1ccc(Nc2nc3ccccc3n3nnnc23)cc1 | > 50 µM (inactive) |
| Cc1cnnn1-c1ccc(C(=O)Nc2cc(Cl)ccc2Cl)cc1 | > 50 µM (inactive) |
| Cc1c(C)n(-c2ccccc2)c2ncn(CC(=O)N(C)Cc3ccccc3)c(=O)c12 | > 50 µM (inactive) |
| COc1cccc(NC(=O)C2Cn3ccnc3C3(CCN(C(C)=O)CC3)O2)c1 (configuration not stated) | > 50 µM (inactive) |
| CC1=C(Cn2c3cccc(=O)c-3nc3ccccc32)CCC(C)(C)C1 | 3.73 µM |
| CCOc1ccc(NC(=O)c2cc(-c3ccccc3)c(N3CCOCC3)s2)cc1 | 27.2 µM |
| O=C(Nc1cccc(S(=O)(=O)N2CCCC2)c1)c1ccc2c(=O)n3c(nc2c1)CCCCC3 | > 50 µM (inactive) |
| COc1ccccc1OCCNC(=O)c1cc(C2CC2)nc2c1cnn2C(C)C | > 50 µM (inactive) |
| COc1cccc(CNC(=O)c2ccc3c(c2)NC(=O)C2CCCN32)c1OC (configuration not stated) | > 50 µM (inactive) |
| CCOc1ccc(NC(=O)Cn2c(=O)n(CCC(=O)NCc3ccccc3OC)c(=O)c3ccccc32)cc1 | 15.4 µM |
| Cc1ccc(C(=O)N2CCCC3(C2)Nc2cccnc2NC3=NC2CCCC2)s1 (configuration not stated) | > 50 µM (inactive) |
| CCC(=O)OCc1cnc(C)c2oc(=O)c(-c3nc(-c4ccccc4)no3)cc12 | > 50 µM (inactive) |
| COc1cc(-c2cc(C(=O)Nc3cc(C)[nH]n3)c3ccccc3n2)cc(OC)c1OC | > 50 µM (inactive) |
| COC(=O)c1cc(C#N)c(NCc2ccccc2)nc1C | > 50 µM (inactive) |
| Fc1ccc(Nc2nc(Nc3cccc(F)c3)nc3nccnc23)cc1 | > 50 µM (inactive) |
| O=C(Cc1cccnc1)Nc1ccc(N2CCN(C3CCCCC3)C2=O)nc1 | > 50 µM (inactive) |
| Cc1cc(NC(=O)COc2ccc3oc4ccccc4c3c2)no1 | > 50 µM (inactive) |
| N#Cc1cc(C(=O)c2ccc(Cl)cc2)c[nH]1 | > 50 µM (inactive) |

| Compound | IC50 |
| --- | --- |
| CC(=O)c1cccc(NC(=O)c2ccc(CN(c3ccc(C)c(C)c3)S(C)(=O)=O)cc2)c1 | > 50 µM (inactive) |
| Cc1cnc(CN2CCCC(c3ccc4cn[nH]c4n3)C2)cn1 (configuration not stated) | > 50 µM (inactive) |
| Cc1c(-c2ccc(C#N)cc2)oc2ccc(Br)cc2c1=O | > 50 µM (inactive) |
| Cc1nc(N2CCCC2)ncc1-c1cc(=O)[nH]c(N2CCc3ccccc3C2)n1 | 29.3 µM |
| COc1cc2c(cc1OC)-c1cc(Nc3ccc(Br)cc3)nc(=O)n1CC2 | 8.29 µM |
| COC(=O)C1C(c2ccc(OC)cc2)C2(C(=O)c3ccccc3C2=O)C2C=Cc3ccccc3N12 (configuration not stated) | > 50 µM (inactive) |
| COc1ccc(CC(=O)Nc2ccc3nc(N4CCOCC4)cc(C)c3c2)cc1 | > 50 µM (inactive) |
| CCN(Cc1ccccc1)S(=O)(=O)c1ccc(C(=O)Nc2ccc3c(c2)OCCO3)cc1 | > 50 µM (inactive) |
| O=C(CSc1nnnn1-c1ccccc1)Nc1ccccc1 | > 50 µM (inactive) |
| COc1ccc(CCC(=O)Nc2ccc3c(c2)Sc2ncccc2C(=O)N3C)cc1 | > 50 µM (inactive) |
| O=C(NCc1cccnc1)C1CCN(c2cnc(N3CCCCCC3)nc2)CC1 | > 50 µM (inactive) |
| COC(=O)c1sccc1NC(=O)COc1ccsc1C(=O)OC | > 50 µM (inactive) |
| Cc1ccc2cc3c(nc2n1)CCN(Cc1ccc(F)cc1)C3 | > 50 µM (inactive) |
| CC(C)(C)N=C1Nc2ncccc2NC12CCCN(C(=O)c1ccccc1)C2 (configuration not stated) | > 50 µM (inactive) |
| COc1cccc(NC(=O)c2ccc(-c3csc(C)n3)cc2)c1 | > 50 µM (inactive) |
| Cc1nc2ccccc2nc1SCC(=O)Nc1ccc2c(c1)OCO2 | > 50 µM (inactive) |
| O=C(Nc1cccc(Br)c1)c1cc(-c2cccnc2)n[nH]1 | 10.4 µM |
| COc1ccc(CN=C2NS(=O)(=O)C(c3ccc(F)cc3)=C2C)cc1OC | > 50 µM (inactive) |
| Cc1ccc(-c2ccc(N3CCOCC3)nn2)cc1S(=O)(=O)N1CCOCC1 | > 50 µM (inactive) |
| COc1ccc(NC(=O)c2nnn(-c3ccccc3F)c2C)cc1OC | > 50 µM (inactive) |
| Cc1ccc(S(=O)(=O)NCC(=O)OC(C(=O)Nc2cc(C)ccc2C)c2ccccc2)cc1 (configuration not stated) | > 50 µM (inactive) |
| O=[N+]([O-])c1ccc(NCC2COc3ccccc3O2)c(Cl)c1 (configuration not stated) | > 50 µM (inactive) |
| O=C(COc1nsnc1N1CCOCC1)Nc1ccccc1F | > 50 µM (inactive) |
| O=C(CC1C(=O)N(Cc2cccnc2)c2nc3ccccc3n21)Nc1cccc2ccccc12 (configuration not stated) | > 50 µM (inactive) |
| CCc1ccc(C2c3c(oc4ccccc4c3=O)C(=O)N2c2nncs2)cc1 (configuration not stated) | > 50 µM (inactive) |

| Compound | IC50 |
| --- | --- |
| O=C1/C(=C/c2cn(-c3ccccc3)nc2-c2ccc3c(c2)OCCO3)Cc2ccccc21 | > 50 µM (inactive) |
| CCCCNc1nc2c(-c3ccccc3)nnn2c2ccccc12 | > 50 µM (inactive) |
| CN(C)S(=O)(=O)c1ccc(C(=O)Nc2c(C#N)oc3ccccc23)cc1 | > 50 µM (inactive) |
| O=C(NCc1ccccc1)c1ccc(-c2ccc(N3CCCC3)nn2)cc1 | > 50 µM (inactive) |
| COc1ccc2[nH]cc(S(=O)(=O)c3ccc(C)c(F)c3)c(=O)c2c1 | 44.5 µM |
| Cc1ccc(S(=O)(=O)N2CCCCC2)cc1NC(=O)Cc1cccc(F)c1 | > 50 µM (inactive) |
| COc1cc2c(oc(=O)c3cc(C)cc(OC)c32)c2c([C@@H]3OC(C)[C@@H](O)[C@@](C)(O)C3O)ccc(O)c12 (some centres not stated) | > 50 µM (inactive) |
| C/C=C\C1=CC(=O)[C@]23C[C@H]2[C@]2(C)CO[C@@]1(O)[C@@]3(O)O2 | > 50 µM (inactive) |
| O=C(CCn1c(=O)c2sccc2n(CC(=O)OCc2ccccc2)c1=O)NCc1ccc2c(c1)OCO2 | 20.7 µM |
| COc1cc(O)c2c(c1)C1=CC(=O)C(O)=C[C@]1(C)OC2=O | 29.9 µM |
| COc1ccc(C(C)=O)cc1CC(=O)Nc1nc2ccccc2[nH]1 | > 50 µM (inactive) |
| Cc1cc(-n2c(C)cc(-c3csc(N)n3)c2C)no1 | > 50 µM (inactive) |
| Cc1cccc(NC(=O)CN2C(=O)COc3cc(S(=O)(=O)N4CCCC4)ccc32)c1C | 20.9 µM |
| Cc1nc(-c2noc3ccc(C(=O)Nc4cccnc4)cc23)cs1 | 42.4 µM |
| O=C(NC1(O)C(=O)c2ccccc2C1=O)c1cccc2c1-c1ccccc1C2=O | 35.1 µM |
| CCOC(=O)c1c(C)oc2nc(CSc3ccccc3)[nH]c(=O)c12 | > 50 µM (inactive) |
| CC(C)CC1NC(=O)C2CCCN2C1=O (configuration not stated) | > 50 µM (inactive) |
| Cc1ccc(NC(=O)c2cnc3c(c2)c(=O)n(C)c(=O)n3C)cc1 | 20 µM |
| N#Cc1ccccc1Cn1c(=O)n(CCCCC(=O)NCc2ccco2)c(=O)c2ccccc21 | 43.5 µM |
| COc1cc(NC(=O)Cc2ccccc2)ccc1NC(=O)c1cc2ccccc2o1 | 16.4 µM |
| COc1ccc(CC(NC(C)=O)C(=O)NC2CCN(c3c(Cc4ccccc4)c(C)nc4ncnn34)CC2)cc1OC (configuration not stated) | > 50 µM (inactive) |
| CN1CCN(c2ccc3nc(-c4ccccc4)c(-c4ccccc4)nc3c2)CC1 | > 50 µM (inactive) |
| O=C(Cn1c(=O)nc(-c2ccccc2)c2ccccc21)NCc1ccc2c(c1)OCO2 | 22.3 µM |
| CCn1cc(-c2cc(C(=O)Nc3cnn(Cc4cccc(F)c4)c3)c3ccccc3n2)cn1 | > 50 µM (inactive) |
| CCn1c(=O)c2ccccc2n(Cc2nc(-c3ccccc3OC)no2)c1=O | > 50 µM (inactive) |

| Compound | IC50 |
| --- | --- |
| c1coc(CNc2nc3ccccc3n3nnnc23)c1 | > 50 µM (inactive) |
| CCc1ccc(-c2nc(SCC(=O)Nc3ccc4[nH]c(=O)[nH]c4c3)n[nH]2)cc1 | 40.7 µM |
| COc1ccc(CC(=O)NCc2ccc3[nH]c(C)cc3c2)cc1 | > 50 µM (inactive) |
| COc1cccc2c1OCC(NS(=O)(=O)c1cc(C)ccc1C)C2 (configuration not stated) | > 50 µM (inactive) |
| CCc1ccc(NC(=O)Cc2nnc3cc(-c4nc(C)no4)ccn23)cc1 | 29.2 µM |
| CS(=O)(=O)N1CCCc2cc(C(=O)Nc3ccc4c(c3)OCO4)ccc21 | > 50 µM (inactive) |
| CN(C)c1ccc(C2CC(c3c(O)n(C)c(=O)[nH]c3=O)=Nc3ccccc3S2)cc1 (configuration not stated) | > 50 µM (inactive) |
| COc1cc(C)c(NC(=O)c2cc(-c3ccccc3)c(N3CCOCC3)s2)cc1OC | > 50 µM (inactive) |
| Nc1nonc1C(=O)NCCNCc1cccc(OCc2ccc(Cl)cc2)c1 | > 50 µM (inactive) |
| COCCCNC(=O)c1ccc(Cn2c(=O)c3ccccc3n(CC(=O)NC3CCCCC3)c2=O)cc1 | 32.3 µM |
| CCOc1ccc(S(=O)(=O)Nc2ccc[nH]c2=O)cc1 | > 50 µM (inactive) |
| Cc1cc(C)c(NC(=O)Cn2c(=O)n(CCC(=O)NCc3ccc4c(c3)OCO4)c(=O)c3sccc32)c(C)c1 | 12.6 µM |
| Cc1ccc(NC(=O)c2nnn(-c3ccccc3)n2)cc1F | > 50 µM (inactive) |
| Cc1cccc(N2C(=O)/C(=C\c3ccc4c(c3)OCCO4)c3ccccc3C2=O)c1 | > 50 µM (inactive) |
| COc1ccc(C)cc1NC(=O)COc1ccc2c(c1)OCO2 | > 50 µM (inactive) |
| Cc1c(C)c2ccc(OCC(=O)NCc3ccncc3)c(C)c2oc1=O | > 50 µM (inactive) |
| O=S(=O)(c1cccc(F)c1)N1CCN(c2nnnn2-c2ccccc2)CC1 | > 50 µM (inactive) |
| COc1ccccc1/C=C/C(=O)Nc1nc2n(n1)C(c1ccc(Cl)cc1)CC(=O)N2 (configuration not stated) | > 50 µM (inactive) |
| CCc1ccc(OCc2nnc(SCC(=O)Nc3ccccc3OC)n2Cc2ccccc2)cc1 | > 50 µM (inactive) |
| Cc1nc2ccc(NC(=O)COc3ccccc3[N+](=O)[O-])cc2s1 | 19.9 µM |
| O=C(NCc1ccccc1Cl)C1CCCN(c2nc3ccsc3c(=O)s2)C1 (configuration not stated) | > 50 µM (inactive) |
| COc1ccc(NCc2nc3ccccc3n2Cc2ccccc2)cc1 | > 50 µM (inactive) |
